Measured values reported in patent US4868182A, “Enhancement of prazosin” (Merrell Dow Pharmaceuticals Inc., priority 1988, dated 1989).

What was measured:
[1] = test system: spontaneously hypertensive rats; assay: lowering of systolic blood pressure in spontaneously hypertensive rats; format: in vivo, rat; conditions: SHR, oral, prazosin 0.1 mg/kg, alone or combined, mean ± SE
[2] = target: cyclic AMP-phosphodiesterase; assay: in vitro inhibition of cyclic AMP-phosphodiesterase; format: biochemical; conditions: 50% inhibition of cyclic AMP-phosphodiesterase activity on 1 micromolar substrate
Procedure: In general, the specific cyclic AMP-phosphodiesterase inhibitors of this invention, (i.e., the above-described cardiotonic agents) when conjunctively administered with prazosin to effect their synergistic activity, are administered at about the threshold dose to exert a blood pressure lowering effect, i.e., the minimum dose it takes to exert a statistically significant lowering of blood pressure. This threshold dose is readily determined by standard laboratory methodology. For example, assays such as the Spontaneously Hypertensive Rat and the Anesthesized Dog for testing blood pressure effects may readily be employed to determine the threshold dose of lowering blood pressure. The threshold dose may also be approximately calculated from an in vitro IC50 value. For this purpose the in vitro IC50 value is the micromolar quantity of compound needed to effect a 50% inhibition of the activity of cyclic AMP-phosphodiesterase on one (1) micromolar quantity of substrate. This IC50 value, when multiplied by the appropriate fraction for intravenous and oral administrations will yield the dosage range, in mg per kg of body weight, necessary to effect its synergism with prazosin.
On the basis of spontaneously hypertensive rat data the multiplying factor is 1/10 to 1 for the intravenous dose and 1 to 10 for the oral dose. […]

IC50 [2] [µM] | Compound | systolic blood pressure change from control at 1 hour ([1]; Table 2, amrinone 55 mg/kg) [mmHg] | systolic blood pressure change from control at 2 hours ([1]; Table 2, amrinone 55 mg/kg) [mmHg] | systolic blood pressure change from control at 3 hours ([1]; Table 2, amrinone 55 mg/kg) [mmHg] | systolic blood pressure change from control at 4 hours ([1]; Table 2, amrinone 55 mg/kg) [mmHg] | systolic blood pressure change from control at 1 hour ([1]; Table 1, piroximone 25 mg/kg) [mmHg] | systolic blood pressure change from control at 2 hours ([1]; Table 1, piroximone 25 mg/kg) [mmHg] | systolic blood pressure change from control at 3 hours ([1]; Table 1, piroximone 25 mg/kg) [mmHg] | systolic blood pressure change from control at 4 hours ([1]; Table 1, piroximone 25 mg/kg) [mmHg]
 | Nc1cc(-c2ccncc2)c[nH]c1=O [amrinone] | -26 ± 6 | -23 ± 5 | -21 ± 8 | -23 ± 7 |  |  |  | 
26 | CCc1[nH]c(=O)[nH]c1C(=O)c1ccncc1 [piroximone] |  |  |  |  | -23 ± 5 | -17 ± 6 | -18 ± 7 | -20 ± 5
 | COc1cc2nc(N3CCN(C(=O)c4ccco4)CC3)nc(N)c2cc1OC [prazosin] | -32 ± 3 | -31 ± 4 | -32 ± 4 | -31 ± 4 | -40 ± 4 | -40 ± 4 | -42 ± 4 | -35 ± 5
